Test results taken from the supplement of paper PMC10307832.

Legend:
Experiment in all cases: relative viability (nuclei count vs DMSO), 5 days (fraction); higher = more cells survive
[1] = compound: CC1=CC(=NN1)NC2=CC(=NC(=N2)/C=C/C3=CC=CC=C3)N4CCN(CC4)C + O=C(CCCCCCC(=O)Nc1ccccc1)NO [Vorinostat] (partner 1 µM)
In short: (§1)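 Relative viability equals treated-well nuclei counts divided by vehicle-well nuclei counts. Counts came from 4× images of lung cancer cell lines grown in 1536-well plates for 5 days after pin-tool dosing on the day after seeding. Dosing used one drug alone or a fixed anchor-drug dose plus five library-drug doses (not always all listed) in √10 steps, and values are medians of duplicate plates.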

[2] = compound: COC1=CC(c2cc3ccccc3[nH]2)=N/C1=C\c1[nH]c(C)cc1C [Obatoclax] + CC(C)C[C@H](NC(=O)[C@H](Cc1ccccc1)NC(=O)c1cnccn1)B(O)O [Bortezomib] (partner 0.002 µM)
In short: as §1

[3] = compound: CC1=CC(=NN1)NC2=CC(=NC(=N2)/C=C/C3=CC=CC=C3)N4CCN(CC4)C + COc1cccc2cc(-c3nc([C@H]4CC[C@H](C(=O)O)CC4)n4ncnc(N)c34)[nH]c12 [OSI-027] (partner 0.5 µM)
In short: as §1

[4] = compound: COC1=CC(c2cc3ccccc3[nH]2)=N/C1=C\c1[nH]c(C)cc1C [Obatoclax] + Cc1nc(Nc2ncc(C(=O)Nc3c(C)cccc3Cl)s2)cc(N2CCN(CCO)CC2)n1 [Dasatinib] (partner 0.075 µM)
In short: as §1

## NCI-H650
[1]; first compound 0.08 µM
  relative viability: 0.412
[1]; first compound 0.253 µM
  relative viability: 0.717
[1]; first compound 0.8 µM
  relative viability: 0.495
[1]; first compound 2.53 µM
  relative viability: 0.409
[1]; first compound 8 µM
  relative viability: 0.174
[2]; first compound 0.01 µM
  relative viability: 0.795
[2]; first compound 0.03162 µM
  relative viability: 0.732
[2]; first compound 0.1 µM
  relative viability: 0.455
[2]; first compound 0.3162 µM
  relative viability: 0.504
[2]; first compound 1 µM
  relative viability: 0.337
[3]; first compound 0.253 µM
  relative viability: 0.597
[3]; first compound 0.8 µM
  relative viability: 0.575
[3]; first compound 2.53 µM
  relative viability: 0.47
[3]; first compound 8 µM
  relative viability: 0.172
[4]; first compound 0.01 µM
  relative viability: 0.451
[4]; first compound 0.03162 µM
  relative viability: 0.431
[4]; first compound 0.3162 µM
  relative viability: 0.279
[4]; first compound 1 µM
  relative viability: 0.263
